Drawing on patent publication US11613527B2, “Enzyme inhibitors” (KalVista Pharmaceuticals Limited, priority 2019, dated 2023), this text covers IC50 and solubility for 16 molecules.

For one series, the target named is Human plasma kallikrein (Homo sapiens (Human), UniProt P03952). The experiment in a line: Determination of the IC50 for plasma kallikrein (fluorogenic substrate H-DPro-Phe-Arg-AFC). The class given is biochemical. Conditions: class symbols A-D, read-out: IC50 (human PKal). In outline: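 Enzyme from a commercial source was incubated at 25° C. with H-DPro-Phe-Arg-AFC substrate and a range of test compound concentrations. Residual activity was taken as the initial reaction rate, followed by absorbance change at 410 nm, and IC50 values were derived from it.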
Human plasma kallikrein, sequence (P03952 391-638): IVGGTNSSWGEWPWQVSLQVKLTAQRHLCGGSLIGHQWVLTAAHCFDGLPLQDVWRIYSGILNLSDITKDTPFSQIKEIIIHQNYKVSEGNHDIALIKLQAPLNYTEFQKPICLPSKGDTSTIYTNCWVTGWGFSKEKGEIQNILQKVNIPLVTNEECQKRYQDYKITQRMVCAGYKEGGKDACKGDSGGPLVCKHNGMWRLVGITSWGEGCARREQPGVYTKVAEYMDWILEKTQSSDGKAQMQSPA
Human plasma kallikrein, sequence (P03952 20-390 partner): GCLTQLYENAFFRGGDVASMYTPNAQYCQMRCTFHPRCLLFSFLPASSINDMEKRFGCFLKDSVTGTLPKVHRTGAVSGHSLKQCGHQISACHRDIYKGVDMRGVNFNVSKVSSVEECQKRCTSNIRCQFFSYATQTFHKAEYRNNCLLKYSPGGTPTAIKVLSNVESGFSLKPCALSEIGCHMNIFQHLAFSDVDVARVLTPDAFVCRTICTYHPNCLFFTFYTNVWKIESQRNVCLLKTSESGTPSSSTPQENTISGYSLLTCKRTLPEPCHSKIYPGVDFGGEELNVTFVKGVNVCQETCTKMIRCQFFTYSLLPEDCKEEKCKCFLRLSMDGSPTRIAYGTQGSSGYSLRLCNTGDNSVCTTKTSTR

The next series concerns the target Human KLK1 (Homo sapiens (Human), UniProt P06870). The experiment in a line: Determination of the IC50 for KLK1 (fluorogenic substrate H-DVal-Leu-Arg-AFC). Format: biochemical. In outline:
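Human KLK1 incubated at 25° C. with fluorogenic substrate H-DVal-Leu-Arg-AFC and a range of test compound concentrations. Residual activity taken as initial reaction rate from absorbance change at 410 nm; IC50 derived from these rates.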

The target in another series is Human FXIa (Homo sapiens (Human), UniProt P03951). The experiment in a line: Determination of the % inhibition for FXIa (fluorogenic substrate Z-Gly-Pro-Arg-AFC; 40 μM or IC50). The class given is biochemical. In outline:
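Human FXIa incubated at 25 °C with fluorogenic substrate Z-Gly-Pro-Arg-AFC and test compound at 40 μM for % inhibition, or a concentration series for IC50. Residual activity taken as initial rate from absorbance change at 410 nm.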

A short description of series [1]: Solubility after 24 hrs in Fasted State Simulated Intestinal Fluid (FaSSIF). Format: physicochemical. Conditions: Fasted State Simulated Intestinal Fluid (FaSSIF), thermodynamic from solid, 24 hrs at 37° C., nominal concentration 1 mg/mL (as free base). The protocol: Selected compounds were further screened for solubility in Fasted State Simulated Intestinal Fluid (FaSSIF).
Approximately 1 mg of test compound is accurately weighed into a 2 mL vial. Volumes of the FaSSIF solution (pre-heated to 37° C.) were added to a vial to give a nominal concentration of 1 mg/mL (as free base). The FaSSIF solution was prepared on the day of use. The samples were vortexed before being placed in a Titramax 1000 shaker for 24 hrs at 37° C. and approximately 500 rpm. The samples were transferred to eppendorf tubes and centrifuged at 15,000 g (r.c.f.) for 10 min at 37° C. and analysed for concentration of test compound by LCMS.

The IC50 is the concentration that gives 50% inhibition. One may read the solubility as the dissolved amount per volume that the medium holds. A high value points to much dissolved substance.

Molecules are shown by their SMILES. ≈ marks a conversion by molar mass, not a printed value.

Human FXIa, sequence (P03951 388-625): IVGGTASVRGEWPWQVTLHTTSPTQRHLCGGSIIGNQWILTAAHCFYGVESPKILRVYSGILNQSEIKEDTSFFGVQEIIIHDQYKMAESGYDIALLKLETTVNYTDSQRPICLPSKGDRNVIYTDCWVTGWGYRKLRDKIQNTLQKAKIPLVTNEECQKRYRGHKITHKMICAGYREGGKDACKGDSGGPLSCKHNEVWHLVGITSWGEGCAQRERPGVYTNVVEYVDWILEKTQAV
Human FXIa, sequence (P03951 19-387 partner): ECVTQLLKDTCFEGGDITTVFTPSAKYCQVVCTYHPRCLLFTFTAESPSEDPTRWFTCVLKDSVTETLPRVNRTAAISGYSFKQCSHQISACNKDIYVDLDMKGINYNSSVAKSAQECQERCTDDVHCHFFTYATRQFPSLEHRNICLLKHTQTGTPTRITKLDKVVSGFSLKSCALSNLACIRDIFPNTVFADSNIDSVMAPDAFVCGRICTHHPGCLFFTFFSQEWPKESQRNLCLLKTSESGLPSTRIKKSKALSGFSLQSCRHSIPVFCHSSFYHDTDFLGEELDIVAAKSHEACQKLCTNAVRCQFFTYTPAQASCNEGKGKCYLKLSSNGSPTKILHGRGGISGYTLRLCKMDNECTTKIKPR
Human KLK1, sequence (P06870 25-262): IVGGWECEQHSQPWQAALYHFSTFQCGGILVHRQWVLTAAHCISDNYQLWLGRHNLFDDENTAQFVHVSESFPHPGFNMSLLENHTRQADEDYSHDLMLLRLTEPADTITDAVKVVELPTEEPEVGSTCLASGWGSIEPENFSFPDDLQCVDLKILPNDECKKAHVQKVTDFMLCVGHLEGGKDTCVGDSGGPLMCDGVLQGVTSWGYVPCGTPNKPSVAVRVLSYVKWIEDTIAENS

For the molecule `COCc1nn(Cc2ccc3c(c2)CCN(C2CC2)C3)cc1C(=O)NCc1c(-n2cc(C)nn2)ccc(OC)c1F` [Example 35, 1-[(2-cyclopropyl-3,4-dihydro-1H-isoquinolin-6-yl)methyl]-N-{[2-fluoro-3-methoxy-6-(4-methyl-1,2,3-triazol-1-yl)phenyl]methyl}-3-(methoxymethyl)pyrazole-4-carboxamide], the IC50 is 0.03 to 0.1 µM at Human plasma kallikrein, greater than 40 µM on Human KLK1 and greater than 40 µM at Human FXIa. Moreover, in series [1], the concentration in solution (solubility at 24 h) was 510 µg/mL (≈ 911 µM).

Regarding `COCc1nn(Cc2cnc3c(c2)CCN(C(C)C)C3)cc1C(=O)NCc1c(-n2cc(C)nn2)ccc(OC)c1F` [Example 117, N-{[2-fluoro-3-methoxy-6-(4-methyl-1,2,3-triazol-1-yl)phenyl]methyl}-1-[(7-isopropyl-6,8-dihydro-5H-1,7-naphthyridin-3-yl)methyl]-3-(methoxymethyl)pyrazole-4-carboxamide], the concentration for half-maximal inhibition (IC50) on Human plasma kallikrein is 0.01 to 0.03 µM; at Human KLK1 it was greater than 40 µM; against Human FXIa it was greater than 40 µM. Moreover, in series [1], the solubility at 24 h is 900 µg/mL (≈ 1600 µM).

In the case of `COc1ccc(-n2cc(C)nn2)c(CNC(=O)c2cn(Cc3ccc4c(c3)CN(C)CC4)nn2)c1F` [Example 152, N-{[2-fluoro-3-methoxy-6-(4-methyl-1,2,3-triazol-1-yl)phenyl]methyl}-1-[(2-methyl-3,4-dihydro-1H-isoquinolin-7-yl)methyl]-1,2,3-triazole-4-carboxamide], the figures for the IC50 at Human plasma kallikrein, on Human KLK1 and at Human FXIa were less than 0.01 µM, greater than 40 µM and greater than 40 µM, respectively. In series [1], this molecule registered a solubility at 24 h of 1000 µg/mL (≈ 2040 µM).

As for `COCc1nn(Cc2ccc3c(c2)CCN(C(C)C)CC3)cc1C(=O)NCc1c(-n2cc(C)nn2)ccc(OC)c1F` [Example 122, N-{[2-fluoro-3-methoxy-6-(4-methyl-1,2,3-triazol-1-yl)phenyl]methyl}-1-[(3-isopropyl-1,2,4,5-tetrahydro-3-benzazepin-7-yl)methyl]-3-(methoxymethyl)pyrazole-4-carboxamide], the IC50 is less than 0.01 µM on Human plasma kallikrein, greater than 40 µM against Human KLK1 and greater than 40 µM at Human FXIa. In series [1], this molecule gave a solubility at 24 h of 730 µg/mL (≈ 1270 µM).

Consider `CCN1CCc2ccc(Cn3cc(C(=O)NCc4c(-n5cnc(C(F)(F)F)n5)ccc(OC)c4F)c(COC)n3)cc2C1` [Example 25, 1-[(2-ethyl-3,4-dihydro-1H-isoquinolin-7-yl)methyl]-N-({2-fluoro-3-methoxy-6-[3-(trifluoromethyl)-1,2,4-triazol-1-yl]phenyl}methyl)-3-(methoxymethyl)pyrazole-4-carboxamide], for which the concentration for half-maximal inhibition (IC50) was less than 0.01 µM on Human plasma kallikrein, greater than 40 µM against Human KLK1 and greater than 40 µM on Human FXIa. The solubility at 24 h in series [1] is 1000 µg/mL (≈ 1660 µM).

For the molecule `COCc1nn(Cc2ccc3c(c2)CN(C)CC3)cc1C(=O)NCc1c(-n2ccc(C#N)n2)ccc(OC)c1F` [Example 11, N-{[6-(3-cyanopyrazol-1-yl)-2-fluoro-3-methoxyphenyl]methyl}-3-(methoxymethyl)-1-[(2-methyl-3,4-dihydro-1H-isoquinolin-7-yl)methyl]pyrazole-4-carboxamide], the IC50 at Human plasma kallikrein was less than 0.01 µM; at Human KLK1, greater than 40 µM; against Human FXIa, 18.9 µM. This molecule displayed a solubility at 24 h in series [1] of 730 µg/mL (≈ 1340 µM).

Turning to `COCc1nn(Cc2ccc3c(c2)CN(C(C)C)CC3)cc1C(=O)NCc1c(-n2cc(C#N)cn2)ccc(OC)c1F` [Example 30, N-{[6-(4-cyanopyrazol-1-yl)-2-fluoro-3-methoxyphenyl]methyl}-1-[(2-isopropyl-3,4-dihydro-1H-isoquinolin-7-yl)methyl]-3-(methoxymethyl)pyrazole-4-carboxamide], the IC50 was less than 0.01 µM at Human plasma kallikrein, greater than 40 µM against Human KLK1 and 39.6 µM at Human FXIa. This molecule yielded a solubility at 24 h in series [1] of 920 µg/mL (≈ 1610 µM).

For `COCc1nn(Cc2ccc3c(c2)CCN(C(C)C)C3)cc1C(=O)NCc1c(-n2cnc(C(F)(F)F)n2)ccc(OC)c1F` [Example 45, N-({2-fluoro-3-methoxy-6-[3-(trifluoromethyl)-1,2,4-triazol-1-yl]phenyl}methyl)-1-[(2-isopropyl-3,4-dihydro-1H-isoquinolin-6-yl)methyl]-3-(methoxymethyl)pyrazole-4-carboxamide], the IC50 on Human plasma kallikrein is less than 0.01 µM; on Human KLK1, greater than 40 µM; at Human FXIa, greater than 40 µM. In series [1], this molecule yielded a solubility at 24 h of 840 µg/mL (≈ 1360 µM).

`CCN1CCc2ccc(Cn3cc(C(=O)NCc4c(-n5cnc(C(F)F)n5)ccc(OC)c4F)c(COC)n3)cc2C1` [Example 26, N-({6-[3-(difluoromethyl)-1,2,4-triazol-1-yl]-2-fluoro-3-methoxyphenyl}methyl)-1-[(2-ethyl-3,4-dihydro-1H-isoquinolin-7-yl)methyl]-3-(methoxymethyl)pyrazole-4-carboxamide]: the figures for the half-inhibitory concentration (IC50) on Human plasma kallikrein, at Human KLK1 and against Human FXIa were less than 0.01 µM, greater than 40 µM and greater than 40 µM, respectively. The same molecule returned a solubility at 24 h in series [1] greater than 1000 µg/mL.

`CCN1CCc2ccc(Cn3cc(C(=O)NCc4c(-n5ccc(C#N)n5)ccc(OC)c4F)c(COC)n3)cc2C1` [Example 27, N-{[6-(3-cyanopyrazol-1-yl)-2-fluoro-3-methoxyphenyl]methyl}-1-[(2-ethyl-3,4-dihydro-1H-isoquinolin-7-yl)methyl]-3-(methoxymethyl)pyrazole-4-carboxamide]: the IC50 on Human plasma kallikrein is less than 0.01 µM; against Human KLK1, greater than 40 µM; on Human FXIa, 33.9 µM. In series [1], this molecule had a solubility at 24 h of 960 µg/mL (≈ 1720 µM).

As to `COCc1nc(C(=O)NCc2c(-n3cc(C)nn3)ccc(OC)c2F)cn1Cc1ccc2c(c1)CN(C(C)C)C2` [Example 147, N-{[2-fluoro-3-methoxy-6-(4-methyl-1,2,3-triazol-1-yl)phenyl]methyl}-1-[(2-isopropyl-1,3-dihydroisoindol-5-yl)methyl]-2-(methoxymethyl)imidazole-4-carboxamide], the IC50 on Human plasma kallikrein was 0.01 to 0.03 µM; on Human KLK1, greater than 40 µM; against Human FXIa, greater than 40 µM. The same molecule gave a solubility at 24 h in series [1] greater than 1000 µg/mL.

On to `COCc1nn(Cc2ccc3c(c2)COCC3)cc1C(=O)NCc1c(-n2cc(C)nn2)ccc(OC)c1F` [Example 133, 1-(3,4-dihydro-1H-2-benzopyran-7-ylmethyl)-N-{[2-fluoro-3-methoxy-6-(4-methyl-1,2,3-triazol-1-yl)phenyl]methyl}-3-(methoxymethyl)pyrazole-4-carboxamide], for which the IC50 was 0.1 to 1 µM at Human plasma kallikrein, greater than 40 µM on Human KLK1 and greater than 40 µM on Human FXIa. In series [1], this molecule yielded a solubility at 24 h of 50 µg/mL (≈ 96 µM).

For `COc1ccc(-n2cc(C)nn2)c(CNC(=O)c2ccc(=O)n(Cc3ccc4c(c3)CN(C)CC4)c2)c1F` [Example 160, N-{[2-fluoro-3-methoxy-6-(4-methyl-1,2,3-triazol-1-yl)phenyl]methyl}-1-[(2-methyl-3,4-dihydro-1H-isoquinolin-7-yl)methyl]-6-oxopyridine-3-carboxamide], the values for the half-inhibitory concentration (IC50) on Human plasma kallikrein, at Human KLK1 and against Human FXIa were less than 0.01 µM, greater than 40 µM and greater than 40 µM, respectively. Besides, the concentration in solution in series [1] (solubility at 24 h) came to 820 µg/mL (≈ 1590 µM).

Regarding `COc1ccc(-n2cc(C)nn2)c(CNC(=O)c2cn(Cc3cc4n(n3)CCN(C)C4)nc2C(F)(F)F)c1F` [Example 125, N-{[2-fluoro-3-methoxy-6-(4-methyl-1,2,3-triazol-1-yl)phenyl]methyl}-1-({5-methyl-4H,6H,7H-pyrazolo[1,5-a]pyrazin-2-yl}methyl)-3-(trifluoromethyl)pyrazole-4-carboxamide], the IC50 was less than 0.01 µM at Human plasma kallikrein, greater than 40 µM on Human KLK1 and greater than 40 µM against Human FXIa. In series [1], this molecule had a solubility at 24 h of 650 µg/mL (≈ 1190 µM).

Regarding `COc1ccc(-n2cc(C)nn2)c(CNC(=O)c2cn(Cc3cnc4c(c3)CCN(C)C4)nc2C(F)F)c1F` [Example 137, 3-(difluoromethyl)-N-{[2-fluoro-3-methoxy-6-(4-methyl-1,2,3-triazol-1-yl)phenyl]methyl}-1-[(7-methyl-6,8-dihydro-5H-1,7-naphthyridin-3-yl)methyl]pyrazole-4-carboxamide], the IC50 is less than 0.01 µM on Human plasma kallikrein, greater than 40 µM on Human KLK1 and 21.9 µM on Human FXIa. Besides, in series [1], the concentration in solution (solubility at 24 h) was 810 µg/mL (≈ 1500 µM).

Take `COCc1nn(Cc2ccc3c(c2)CCN(C(C)C)C3)cc1C(=O)NCc1c(-n2cnc(C(F)F)n2)ccc(OC)c1F` [Example 44, N-({6-[3-(difluoromethyl)-1,2,4-triazol-1-yl]-2-fluoro-3-methoxyphenyl}methyl)-1-[(2-isopropyl-3,4-dihydro-1H-isoquinolin-6-yl)methyl]-3-(methoxymethyl)pyrazole-4-carboxamide]: the half-maximal inhibitory concentration (IC50) at Human plasma kallikrein was less than 0.01 µM; on Human KLK1 it was greater than 40 µM; at Human FXIa it was greater than 40 µM. The molecule also gave a solubility at 24 h in series [1] greater than 1000 µg/mL.
